# In paper PMC6220272, “Scaffold-Hopping from Synthetic Drugs by Holistic Molecular Representation” (Scientific Reports, 2018):
# What was measured:
# Format in all cases: cell-based
# [1] = system: ATP-binding cassette transporter A1 (ABCA1) mRNA in HepG2 cells; test: Target gene quantification (quantitative real-time PCR), ABCA1; conditions: HepG2, 7 at 30 µM versus bexarotene at 1 µM, 8 h, qRT-PCR
# Procedure: (§1) Moreover, 7 was characterized for its ability to modulate RXR target gene expression under more physiological conditions. Hepatoma cells (HepG2) were incubated with 7 (30 µM) or reference RXR agonist bexarotene (9, 1 µM) for eight hours and mRNA expression of RXR regulated genes ATP-binding cassette transporter A1 (ABCA1), angiopoietin like protein 4 (ANGPTL4) and apolipoprotein E (ApoE) was analysed by quantitative real-time PCR.
# (§2) HepG2 cells were incubated with test compound 7 (30 µM) or bexarotene (1 µM) as positive control each dissolved in 0.1% DMSO or 0.1% DMSO alone as untreated control for 8 h, harvested, washed with cold phosphate buffered saline (PBS) and then directly used for RNA extraction with the Total RNA Mini Kit (R6834-02, Omega Bio-Tek, Inc., Norcross, GA, USA). 2 µg RNA were reverse-transcribed into cDNA using the High-Capacity cDNA Reverse Transcription Kit (4368814, Thermo Fischer Scientific, Inc.). RXR target gene expression was evaluated by quantitative real time PCR analysis with a StepOnePlus™ System (Life Technologies, Carlsbad, CA, USA) using PowerSYBRGreen (Life Technologies; 12.5 µl per well) and the primers reported in Supplementary Table 4[58]. […] The expression was quantified by the comparative ∆∆Ct method. […] Results are expressed as mean ± standard error of the mean (SEM) relative mRNA expression compared to DMSO (0.1%) control which was set as 1.
# [2] = system: Gal4-responsive reporter gene; test: Control experiment without Gal4-RXR hybrid receptor (reporter gene construct and renilla luciferase only)
# Procedure: as §1
# (§3) The Gal4 hybrid reporter gene assays were conducted as reported previously[39]–[41]. pFA-CMV-based constructs comprising the ligand binding domain of the human nuclear receptor in question were used as expression plasmids for the chimera receptors. pFR-Luc (Stratagene) served as reporter plasmid and pRL-SV40 (Promega) for normalization of transfection efficiency and cell growth. The assays were conducted in 96-well format in HEK293T cells that were cultured as described previously[39]–[41]. Transient transfection was carried out using Lipofectamine LTX reagent (Invitrogen) according to the manufacturer’s protocol. After transfection and incubation with test compounds (12–14 h), cells were assayed for luciferase activity using Dual-Glo™ Luciferase Assay System (Promega) according to the manufacturer’s protocol. Luminescence was measured with an Infinite M200 luminometer (Tecan Deutschland GmbH). […]
# HepG2 cells = test: Toxicity assay (WST-1, water-soluble tetrazolium assay); conditions: WST-1, HepG2 cells, 48 h
# Procedure: WST-1 assay (Roche Diagnostics International AG, Rotkreuz, Schweiz) was performed according to manufacturer’s protocol in HepG2 cells. Cells were incubated with the test compounds (final concentrations: 1 µM, 10 µM, 30 µM, 50 µM and 100 µM) in DMEM/1% DMSO, and DMEM/1% DMSO as negative control. After 48 h, WST reagent (Roche Diagnostics International AG) was added to each well according to manufacturer’s instructions. After 45 min incubation, absorption (450 nm/reference: 620 nm) was determined with a Tecan Infinite M200 (Tecan Deutschland GmbH). Each experiment was set up in duplicates and repeated in four independent experiments. Results are expressed as mean ± SEM% of DMSO (0.1%) control.
# [3] = system: apolipoprotein E (ApoE) mRNA in HepG2 cells; test: Target gene quantification (quantitative real-time PCR), ApoE; conditions: HepG2, 7 at 30 µM versus bexarotene at 1 µM, 8 h, qRT-PCR
# Procedure: as §1, §2
# [4] = biological target: T1, human RXRα ligand binding domain (Gal4 hybrid receptor) (Homo sapiens, UniProt P19793); test: Gal4 hybrid reporter gene assay RXRα; conditions: HEK293T cells, n ≥ 4, read-out: RXRα EC50 ± SEM
# T1 construct: expressed in transfected cells; host or cells: HEK293T
# T1 sequence (P19793 227-458 limits assumed): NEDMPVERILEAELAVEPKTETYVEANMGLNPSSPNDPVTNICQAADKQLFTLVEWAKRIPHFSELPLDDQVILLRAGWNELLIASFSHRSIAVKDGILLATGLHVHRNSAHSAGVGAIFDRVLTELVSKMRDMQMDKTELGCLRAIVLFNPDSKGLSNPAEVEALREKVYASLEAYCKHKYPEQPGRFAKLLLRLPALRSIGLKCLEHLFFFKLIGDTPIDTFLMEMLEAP
# Procedure: The 20 top-ranked synthetic compounds were selected and tested in vitro for their modulatory activity on RXR (Supplementary Table 1). Compounds were tested in specific hybrid reporter gene assays for RXRα, RXRβ and RXRγ modulation[39]–[41]. These assays rely on a constitutively expressed hybrid receptor composed of the respective human RXR ligand binding domain and the DNA binding domain of the Gal4 receptor from yeast. A Gal4 responsive firefly luciferase was used as reporter gene and constitutively expressed renilla luciferase served as internal control for transfection efficiency and test compound toxicity. All selected compounds were tested at 50 µM concentration on RXRα and for active compounds (Supplementary Fig. 1), dose response curves were recorded on all three RXR subtypes.
# The Gal4 hybrid reporter gene assays were conducted as reported previously[39]–[41]. pFA-CMV-based constructs comprising the ligand binding domain of the human nuclear receptor in question were used as expression plasmids for the chimera receptors. pFR-Luc (Stratagene) served as reporter plasmid and pRL-SV40 (Promega) for normalization of transfection efficiency and cell growth. The assays were conducted in 96-well format in HEK293T cells that were cultured as described previously[39]–[41]. Transient transfection was carried out using Lipofectamine LTX reagent (Invitrogen) according to the manufacturer’s protocol. After transfection and incubation with test compounds (12–14 h), cells were assayed for luciferase activity using Dual-Glo™ Luciferase Assay System (Promega) according to the manufacturer’s protocol. Luminescence was measured with an Infinite M200 luminometer (Tecan Deutschland GmbH). All hybrid assays were validated with reference agonists (PPARα: GW7647; PPARγ: pioglitazone; PPARδ: L165,041; LXRα/β: T0901317; FXR: GW4064; RXRs: bexarotene; RARs: tretinoin; VDR: calcitriol; CAR: CITCO; PXR: SR12813) which yielded EC50 values in agreement with literature. The assays were conducted in duplicates with at least two independent repeats and for active compounds repeated without hybrid receptor coding DNA for every test compound at the highest tested concentration to exclude unspecific effects.
# Supplementary Figure 2. Dose-response curves for RXRα activation. Compounds were tested in specific hybrid reporter gene assays for RXRα, RXRβ and RXRγ modulation.^1–3 These assays rely on a constitutively expressed hybrid receptor composed of the respective human RXR ligand binding domain and the DNA binding domain of the Gal4 receptor from yeast. A Gal4 responsive firefly luciferase was used as reporter gene and constitutively expressed renilla luciferase served as internal control for transfection efficiency and test compound toxicity. […]
# LXRα = biological target: T2, LXRα (Homo sapiens, UniProt Q13133); test: Gal4 hybrid reporter gene assay LXRα (selectivity profiling)
# T2 construct: expressed in transfected cells; host or cells: HEK293T
# T2 sequence (Q13133 209-447 limits assumed): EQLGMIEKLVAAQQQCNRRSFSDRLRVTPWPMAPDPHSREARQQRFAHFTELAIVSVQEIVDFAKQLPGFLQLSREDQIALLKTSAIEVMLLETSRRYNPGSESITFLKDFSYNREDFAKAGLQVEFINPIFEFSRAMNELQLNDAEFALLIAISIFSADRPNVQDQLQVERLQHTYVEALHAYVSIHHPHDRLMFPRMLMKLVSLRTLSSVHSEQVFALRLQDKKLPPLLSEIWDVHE
# Procedure: as §1, §3
structure (smiles),measurement,setting,value
CC(C)(C)c1cc(/C=N/NC(=O)c2ccc(N)cc2)cc(C(C)(C)C)c1 [Compound 7],induction of ABCA1 mRNA expression,[1],comparable efficacy as RXR agonist bexarotene
same,reporter transactivation without hybrid receptor,[2],no reporter transactivation
same,concentration up to which no cytotoxic effect was seen,HepG2 cells,> 100 µM
same,induction of ApoE mRNA expression,[3],comparable efficacy as RXR agonist bexarotene
same,EC50,[4],32.1 ± 0.9 µM
same,activity on LXRα,LXRα,no activity
